{
  "source": "patent US20240294881A1",
  "about": "“CELL CULTURE SUPPLEMENT FOR PRODUCING STEM CELLS, AND METHOD FOR PRODUCING STEM CELLS” (OPTICELL, INC, priority 2021, published 2024)",
  "assay_type_in_all_cases": "cell-based",
  "key": {"[1]": {"system": "healthy human neonatal fibroblasts", "test": "Immunostaining of stem cell marker proteins in neonatal fibroblast spheroids", "protocol": "To confirm whether stem cells were induced in fibroblast spheroids, the expression of stem cell marker proteins was examined by immunostaining with fluorescent dye-labeled antibodies. An aqueous solution of the polypeptide represented by formula (1) (0.125%) (cell culture supplement) was added to a commercial polystyrene-made 96-well round-bottom culture vessel (Nunclon Delta 96U Bottom, Thermo Fisher Scientific) at 100 μL/well, and the coating treatment with the cell culture supplement was completed in the same manner as in Example 2. Fibroblasts were maintained and cultured in a serum-free medium (Fujifilm Wako Pure Chemical Corporation; DMEM/F12 medium, human serum albumin recombinant 0.5 mg/ml, human transferrin recombinant 10 μg/mL, basic-FGF 5 ng/ml, and insulin 2.5 μg/mL). Fibroblasts floating in the medium were seeded in the culture vessel coated with the cell culture supplement at 4×10^4 cells/well/100 μL and cultured at 37° C. under 5% CO2 conditions. Spheroids were collected from the 96-well round-bottom culture vessel on day 20 from the start of culture, and cell fixation was performed with a 4% paraformaldehyde solution, followed by immunostaining. For fluorescence-labeled antibodies, three antibodies for detection of human stem cell marker proteins (NL557 fluorescent dye-labeled anti-SOX2 antibody (fluorescent orange), NL493 fluorescent dye-labeled anti-NANOG antibody (fluorescent green), and NL637-labeled anti-OCT4 antibody (fluorescent red), R&D Systems)) were used and reacted simultaneously to perform observation with a fluorescence microscope."}, "[2]": {"system": "healthy human adult skin fibroblasts", "test": "Real-time PCR of stem cell and triploblastic marker genes in adult skin fibroblast spheroids", "details": "day 20 of 3D spheroid culture, ΔΔCt", "protocol": "An aqueous solution of the polypeptide represented by formula (1) (0.125%) (cell culture supplement) was added to a commercial polystyrene-made 96-well round-bottom culture vessel (Nuncion Delta 96U Bottom, Thermo Fisher Scientific) and allowed to stand at 4° C. for 24 hours. The cell culture supplement solution was then removed and the coated cell culture supplement was dried in a dryer at 37° C. for 96 hours to complete the cell culture supplement coating process. Healthy human adult skin fibroblasts (Lonza, normal human dermal fibroblast-adult, referred to as “adult skin fibroblasts” below) were maintained and cultured in a serum-free medium (Fujifilm Wako Pure Chemical Corporation; DMEM/F12 medium, human serum albumin recombinant 0.5 mg/mL, human transferrin recombinant 10 μg/mL, basic-FGF 5 ng/ml, and insulin 2.5 μg/mL). Adult skin fibroblasts floating in 100 μL of the medium were seeded in the 96-well round-bottom culture vessel coated with the cell culture supplement at 2×10^4 cells/well and cultured at 37° C. under 5% CO2 conditions.\nThe detection of stem cell marker genes was performed by analysis of the expression of mRNA by real-time PCR. Specifically, on day 20 from the start of culture, spheroids were collected in a 15-mL centrifuge tube and centrifuged, followed by washing the cells with phosphate buffered saline(−) and collecting the cells. Cells two-dimensionally cultured in a culture vessel not treated with the cell culture supplement (control) (day 0) were washed with PBS (−) after removal of the medium. The cells were detached from the plate with 0.05% trypsin-EGTA and dissociated, followed by collecting the cells in a 15-mL centrifuge tube and washing again with PBS(−) again. A NucleoZOL (Macherey-Nagel) reagent was added to the spheroids, and RNA was extracted according to the protocol recommended by the reagent manufacturer and determined to be template RNA. For real-time PCR analysis, PCR probes from QuantiFast Probe RT-PCR Kits (QIAGEN; No. 204454) and TaqMan Gene Expression Assay Probe (Thermo Fisher Scientific) were used. PCR analysis was performed with a Rotor-Gene Q (QIAGEN) apparatus. For detection of genes, three transcription factors were used as probes for detecting the expression of undifferentiated stem cell marker genes: SOX2 (sex-determining region Y-box 2), OCT4 (octamer binding transcription factor 4), and NANOG (homeodomain transcription factor); and β-actin was used as an endogenous control gene (FIG. 13).\nTo determine whether stem cells induced in spheroids can differentiate into primordial three germ layers, the expression of triploblastic marker genes was examined by real-time PCR. For probes for detection, the following four triploblastic marker genes were used: SOX17 (sex-determining region Y-box 17; endoderm), GATA6 (GATA family of zinc finger transcription factors; endoderm), HAND1 (heart-and neural crest derivatives-expressed protein 1; mesoderm), and SOX1 (HMG-box (high mobility group) DNA-binding domain; ectoderm). For an endogenous control gene, TaqMan Gene Expression Assay Probe (ß-actin) was used (FIG. 14). In the gene expression analysis, relative quantification was performed according to the ΔΔCt method (Delta Delta Ct method). The results of analysis according to the ΔΔCt method show the amount of a gene expressed by control cells under the conditions of “no cell culture supplement, flat-bottom 2D growth, day 0” as “1.0” in relative terms, and the increase rate in “the expression level in spheroid proliferation on day 20” was determined by comparison."}, "[3]": {"system": "ES2 cells (human ovarian cancer cells)", "test": "Three-dimensional spheroid culture of cancer cells, microscope observation", "details": "6-well flat-bottom vessel coated with 0.125% solution; DMEM + 10% FBS; day 4 to day 15", "protocol": "(§1) Method 2 mL of an aqueous solution of the polypeptide represented by formula (1) (0.125%) (cell culture supplement) was added to a commercial polystyrene-made 6-well flat-bottom culture vessel (CellBIND, Corning) and allowed to stand at 4° C. for 24 hours.\n(§2) The cell culture supplement solution was then removed and the coated cell culture supplement was dried in a dryer at 37° C. for 96 hours to complete the cell culture supplement coating process. For human cancer cells, common cancer cell lines, A549 cells (human lung cancer cells, ATCC CCL-185, carcinoma), ES2 cells (human ovarian cancer cells, ATCC CRL-1978, clear cell carcinoma), and HOS-143 cells (human osteosarcoma cells, ATCC CRL-8303, osteosarcoma), were used. Each type of cancer cells was seeded in the culture vessel at 2×10^5 cells/well/[…] and cultured at 37° C. under 5% CO2. The medium for use was a DMEM medium supplemented with 10% FBS and penicillin/streptomycin. For a control, cancer cells were seeded in the same type of culture vessel that was not coated with the cell culture supplement at […]. Observation was performed with a microscope on day 4 and day 15 after the start of culture to capture images of spheroid formation (FIG. 18)."}, "[4]": {"system": "HOS-143 cells (human osteosarcoma cells)", "test": "Three-dimensional spheroid culture of cancer cells, microscope observation", "details": "6-well flat-bottom vessel coated with 0.125% solution; DMEM + 10% FBS; day 4 to day 15", "protocol": "as §1, §2"}, "[5]": {"system": "A549 cells (human lung cancer cells)", "test": "Three-dimensional spheroid culture of cancer cells, microscope observation", "details": "6-well flat-bottom vessel coated with 0.125% solution; DMEM + 10% FBS; day 4 to day 15", "protocol": "as §1, §2"}},
  "data": [
    {"substance": "(Pro-Hyp-Gly)n [cell culture supplement]", "values": [
      {"measurement": "NANOG stem cell marker protein, fluorescence (green)", "setting": "[1]; spheroids day 20, NL493-labeled anti-NANOG antibody", "result": "detected"},
      {"measurement": "SOX2 stem cell marker protein, fluorescence (orange)", "setting": "[1]; spheroids day 20, NL557-labeled anti-SOX2 antibody", "result": "detected"},
      {"measurement": "OCT4 stem cell marker protein, fluorescence (red)", "setting": "[1]; spheroids day 20, NL637-labeled anti-OCT4 antibody", "result": "detected"},
      {"measurement": "NANOG gene expression level (increase vs control)", "setting": "[2]; 2D control cells = 1.0", "result": 50.5, "unit": "fold"},
      {"measurement": "OCT4 gene expression level (increase vs control)", "setting": "[2]; 2D control cells = 1.0", "result": 13.0, "unit": "fold"},
      {"measurement": "SOX2 gene expression level (increase vs control)", "setting": "[2]; 2D control cells = 1.0", "result": 9.4, "unit": "fold"},
      {"measurement": "GATA6 gene expression level (increase vs control)", "setting": "[2]; control cells = 1.0", "result": 2.2, "unit": "fold"},
      {"measurement": "HAND1 gene expression level (increase vs control)", "setting": "[2]; control cells = 1.0", "result": 33.9, "unit": "fold"},
      {"measurement": "SOX1 gene expression level (increase vs control)", "setting": "[2]; control cells = 1.0", "result": 7.1, "unit": "fold"},
      {"measurement": "SOX17 gene expression level (increase vs control)", "setting": "[2]; control cells = 1.0", "result": 11.4, "unit": "fold"},
      {"measurement": "spheroid formation", "setting": "[3]", "result": "form spheroids"},
      {"measurement": "spheroid formation", "setting": "[4]", "result": "form spheroids"},
      {"measurement": "spheroid formation", "setting": "[5]", "result": "form spheroids"}
    ]}
  ]
}
